From patent US7785875B2, “Polynucleotide encoding HCV epitopes which can bind to various HLA supertypes, immunogenic composition comprising same and method of inducing an HCV-specific immune response using same” (priority 2004, dated 2010)

System: PBMCs derived from HCV-infected patients
Assay: Ex vivo IFN-γ ELISPOT assay
Assay type: cell-based, human
Conditions: for responsiveness of positive reaction: positive = 30 or more SFCs per 2×10^5 PBMCs; for number of HLA types the epitope was positive to: of 9 HLA types found in the patients (A2, A24, A26, A3, B7, B15, B27, B44, B51)

## C1: HCV epitope peptide of 9 amino acids, NS3, region 1338 (TAGARLVVL) [Peptide C1]
HLA-A2 type patients
  responsiveness of positive reaction: 11.5%
HLA-A3 type patients
  responsiveness of positive reaction: 10.0%
HLA-A24 type patients
  responsiveness of positive reaction: 4.18%
HLA-A26 type patients
  responsiveness of positive reaction: 0%
HLA-A molecule A2
  Number of patients showing positive response/Number of patients having specific MHC type: 3/26
HLA-A molecule A3
  Number of patients showing positive response/Number of patients having specific MHC type: 3/30
HLA-A molecule A24
  Number of patients showing positive response/Number of patients having specific MHC type: 1/24
HLA-A molecule A26
  Number of patients showing positive response/Number of patients having specific MHC type: 0/1
HLA-B7 type patients
  responsiveness of positive reaction: 11.7%
HLA-B15 type patients
  responsiveness of positive reaction: 0%
HLA-B27 type patients
  responsiveness of positive reaction: 0%
HLA-B44 type patients
  responsiveness of positive reaction: 22.2%
HLA-B51 type patients
  responsiveness of positive reaction: 20.0%
HLA-B molecule B7
  Number of patients showing positive response/Number of patients having specific MHC type: 2/17
HLA-B molecule B15
  Number of patients showing positive response/Number of patients having specific MHC type: 0/9
HLA-B molecule B27
  Number of patients showing positive response/Number of patients having specific MHC type: 0/4
HLA-B molecule B44
  Number of patients showing positive response/Number of patients having specific MHC type: 2/9
HLA-B molecule B51
  Number of patients showing positive response/Number of patients having specific MHC type: 2/10
  number of HLA types the epitope was positive to: 6

## C4: HCV epitope peptide of 9 amino acids, NS2, region 894 (AILGPLMVF) [Peptide C4]
HLA-A2 type patients
  responsiveness of positive reaction: 26.3%
HLA-A3 type patients
  responsiveness of positive reaction: 23.5%
HLA-A24 type patients
  responsiveness of positive reaction: 29.1%
HLA-A26 type patients
  responsiveness of positive reaction: 0%
HLA-A molecule A2
  Number of patients showing positive response/Number of patients having specific MHC type: 7/26
HLA-A molecule A3
  Number of patients showing positive response/Number of patients having specific MHC type: 7/30
HLA-A molecule A24
  Number of patients showing positive response/Number of patients having specific MHC type: 7/24
HLA-A molecule A26
  Number of patients showing positive response/Number of patients having specific MHC type: 0/1
HLA-B7 type patients
  responsiveness of positive reaction: 29.1%
HLA-B15 type patients
  responsiveness of positive reaction: 44.4%
HLA-B27 type patients
  responsiveness of positive reaction: 0%
HLA-B44 type patients
  responsiveness of positive reaction: 22.2%
HLA-B51 type patients
  responsiveness of positive reaction: 50.0%
HLA-B molecule B7
  Number of patients showing positive response/Number of patients having specific MHC type: 5/17
HLA-B molecule B15
  Number of patients showing positive response/Number of patients having specific MHC type: 4/9
HLA-B molecule B27
  Number of patients showing positive response/Number of patients having specific MHC type: 0/4
HLA-B molecule B44
  Number of patients showing positive response/Number of patients having specific MHC type: 2/9
HLA-B molecule B51
  Number of patients showing positive response/Number of patients having specific MHC type: 5/10
  number of HLA types the epitope was positive to: 7

## L1: HCV epitope peptide of 9 amino acids, Core, region 118 (NLGKVIDTL) [Peptide L1]
HLA-A2 type patients
  responsiveness of positive reaction: 11.5%
HLA-A3 type patients
  responsiveness of positive reaction: 10.0%
HLA-A24 type patients
  responsiveness of positive reaction: 8.3%
HLA-A26 type patients
  responsiveness of positive reaction: 0%
HLA-A molecule A2
  Number of patients showing positive response/Number of patients having specific MHC type: 3/26
HLA-A molecule A3
  Number of patients showing positive response/Number of patients having specific MHC type: 3/30
HLA-A molecule A24
  Number of patients showing positive response/Number of patients having specific MHC type: 2/24
HLA-A molecule A26
  Number of patients showing positive response/Number of patients having specific MHC type: 0/1
HLA-B7 type patients
  responsiveness of positive reaction: 11.7%
HLA-B15 type patients
  responsiveness of positive reaction: 0%
HLA-B27 type patients
  responsiveness of positive reaction: 0%
HLA-B44 type patients
  responsiveness of positive reaction: 33.3%
HLA-B51 type patients
  responsiveness of positive reaction: 10.0%
HLA-B molecule B7
  Number of patients showing positive response/Number of patients having specific MHC type: 2/17
HLA-B molecule B15
  Number of patients showing positive response/Number of patients having specific MHC type: 0/9
HLA-B molecule B27
  Number of patients showing positive response/Number of patients having specific MHC type: 0/4
HLA-B molecule B44
  Number of patients showing positive response/Number of patients having specific MHC type: 3/9
HLA-B molecule B51
  Number of patients showing positive response/Number of patients having specific MHC type: 1/10
  number of HLA types the epitope was positive to: 6

## L2: HCV epitope peptide of 9 amino acids, E2, region 632 (YVGGVEHRL) [Peptide L2]
HLA-A2 type patients
  responsiveness of positive reaction: 15.3%
HLA-A3 type patients
  responsiveness of positive reaction: 13.3%
HLA-A24 type patients
  responsiveness of positive reaction: 12.5%
HLA-A26 type patients
  responsiveness of positive reaction: 0%
HLA-A molecule A2
  Number of patients showing positive response/Number of patients having specific MHC type: 4/26
HLA-A molecule A3
  Number of patients showing positive response/Number of patients having specific MHC type: 4/30
HLA-A molecule A24
  Number of patients showing positive response/Number of patients having specific MHC type: 3/24
HLA-A molecule A26
  Number of patients showing positive response/Number of patients having specific MHC type: 0/1
HLA-B7 type patients
  responsiveness of positive reaction: 5.8%
HLA-B15 type patients
  responsiveness of positive reaction: 22.2%
HLA-B27 type patients
  responsiveness of positive reaction: 25.0%
HLA-B44 type patients
  responsiveness of positive reaction: 11.1%
HLA-B51 type patients
  responsiveness of positive reaction: 20.0%
HLA-B molecule B7
  Number of patients showing positive response/Number of patients having specific MHC type: 1/17
HLA-B molecule B15
  Number of patients showing positive response/Number of patients having specific MHC type: 2/9
HLA-B molecule B27
  Number of patients showing positive response/Number of patients having specific MHC type: 1/4
HLA-B molecule B44
  Number of patients showing positive response/Number of patients having specific MHC type: 1/9
HLA-B molecule B51
  Number of patients showing positive response/Number of patients having specific MHC type: 2/10
  number of HLA types the epitope was positive to: 8

## L6: HCV epitope peptide of 9 amino acids, E2, region 628 (KVRMYVGGV) [Peptide L6]
HLA-A2 type patients
  responsiveness of positive reaction: 15.3%
HLA-A3 type patients
  responsiveness of positive reaction: 10.0%
HLA-A24 type patients
  responsiveness of positive reaction: 8.3%
HLA-A26 type patients
  responsiveness of positive reaction: 0%
HLA-A molecule A2
  Number of patients showing positive response/Number of patients having specific MHC type: 4/26
HLA-A molecule A3
  Number of patients showing positive response/Number of patients having specific MHC type: 3/30
HLA-A molecule A24
  Number of patients showing positive response/Number of patients having specific MHC type: 2/24
HLA-A molecule A26
  Number of patients showing positive response/Number of patients having specific MHC type: 0/1
HLA-B7 type patients
  responsiveness of positive reaction: 11.7%
HLA-B15 type patients
  responsiveness of positive reaction: 11.1%
HLA-B27 type patients
  responsiveness of positive reaction: 0%
HLA-B44 type patients
  responsiveness of positive reaction: 11.1%
HLA-B51 type patients
  responsiveness of positive reaction: 30.0%
HLA-B molecule B7
  Number of patients showing positive response/Number of patients having specific MHC type: 2/17
HLA-B molecule B15
  Number of patients showing positive response/Number of patients having specific MHC type: 1/9
HLA-B molecule B27
  Number of patients showing positive response/Number of patients having specific MHC type: 0/4
HLA-B molecule B44
  Number of patients showing positive response/Number of patients having specific MHC type: 1/9
HLA-B molecule B51
  Number of patients showing positive response/Number of patients having specific MHC type: 3/10
  number of HLA types the epitope was positive to: 7

## L7: HCV epitope peptide of 9 amino acids, NS2, region 883 (ELIFDITKL) [Peptide L7]
HLA-A2 type patients
  responsiveness of positive reaction: 19.2%
HLA-A3 type patients
  responsiveness of positive reaction: 10.0%
HLA-A24 type patients
  responsiveness of positive reaction: 12.5%
HLA-A26 type patients
  responsiveness of positive reaction: 0%
HLA-A molecule A2
  Number of patients showing positive response/Number of patients having specific MHC type: 5/26
HLA-A molecule A3
  Number of patients showing positive response/Number of patients having specific MHC type: 3/30
HLA-A molecule A24
  Number of patients showing positive response/Number of patients having specific MHC type: 3/24
HLA-A molecule A26
  Number of patients showing positive response/Number of patients having specific MHC type: 0/1
HLA-B7 type patients
  responsiveness of positive reaction: 17.6%
HLA-B15 type patients
  responsiveness of positive reaction: 22.2%
HLA-B27 type patients
  responsiveness of positive reaction: 25.0%
HLA-B44 type patients
  responsiveness of positive reaction: 11.1%
HLA-B51 type patients
  responsiveness of positive reaction: 20.0%
HLA-B molecule B7
  Number of patients showing positive response/Number of patients having specific MHC type: 3/17
HLA-B molecule B15
  Number of patients showing positive response/Number of patients having specific MHC type: 2/9
HLA-B molecule B27
  Number of patients showing positive response/Number of patients having specific MHC type: 1/4
HLA-B molecule B44
  Number of patients showing positive response/Number of patients having specific MHC type: 1/9
HLA-B molecule B51
  Number of patients showing positive response/Number of patients having specific MHC type: 2/10
  number of HLA types the epitope was positive to: 8
